According to US8252737B2, “Antimicrobial peptides and methods of use” (priority 2004, dated 2012):
≈ marks a conversion by molar mass, not a printed value. Read-outs that look alike come from different tables or passages of the source. Square brackets hold non-standard residues; d marks the D form. Peptide text beside a SMILES is read from it.

What was measured:
[1] = Circular dichroism spectroscopy of helical structure (benign buffer and 50% TFE); assay type: physicochemical; settings: 25° C.; for % helix 50% TFE / % helix Benign: relative to NAL in 50% TFE; for [θ]222 Benign: benign buffer (100 mM KCl, 50 mM PO4 pH 7.0); for [θ]222 50% TFE: benign buffer diluted 1:1 (v/v) with TFE; for % helix Benign: benign buffer
Procedure: To determine the secondary structure of peptides in different environments, circular dichroism (CD) spectra of the peptide analogs were measured under physiologically related pH and ionic strength (100 mM KCl, 50 mM aq. PO4, pH 7 referred to as benign conditions) and also in 50% TFE to mimic the hydrophobic environment of the membrane. […] On the non-polar face, the native L-Val residue was critical in maintaining α-helical structure. […] Even the substitution with L-Ala, which is known to have the highest α-helical propensity of all 20 amino acids (34), could not stabilize the α-helical structure. […] It is noteworthy that, on the non-polar face, the magnitude of the helical content of L-peptides in benign buffer was related to the hydrophobicity of the substituting amino acids, i.e., NLL>NVL>NAL>NSL, NKL, again showing the importance of hydrophobicity on the non-polar face in maintaining the α-helical structure. […] However, whether L- or D-substitutions were made on the non-polar face, high helical structure could be induced by the hydrophobic environment of 50% TFE, a mimic of the membrane's hydrophobicity and α-helix inducing ability (Table 3).
To determine the secondary structure of the D-enantiomeric peptides in different environments, CD spectra of the peptide analogs were measured under benign conditions (100 mM KCl, 50 mM KH2PO4/K2HPO4, pH 7.4, referred to as KP buffer) and also in 50% trifluoroethanol (TFE) to mimic the hydrophobic environment of the membrane. […] However, in the presence of 50% TFE, all three L-peptides were fully folded α-helical structures with similar ellipticities and helicity (Table 4).
Characterization of Helical Structure—The mean residue molar ellipticities of peptides were determined by circular dichroism (CD) spectroscopy, using a Jasco J-720 spectropolarimeter (Jasco, Easton, Md.), at 25° C. under benign conditions (50 mM KH2PO4/K2HPO4/100 mM KCl, pH 7), as well as in the presence of an α-helix inducing solvent, 2,2,2-trifluoroethanol (TFE) (50 mM KH2PO4/K2HPO4/100 mM KCl, pH 7 buffer/50% TFE). A 10-fold dilution of a ˜500 μM stock solution of the peptide analogs was loaded into a 0.02 cm fused silica cell and its ellipticity scanned from 190 to 250 nm. The values of molar ellipticities of the peptide analogs at a wavelength of 222 nm were used to estimate the relative α-helicity of the peptides.

[2] = tested on: gram-positive bacteria
Procedure: Measurement of Antimicrobial Activity—Minimal inhibitory concentrations (MICs) were determined using a standard microtiter dilution method in LB (Luria-Bertani) no-salt medium (10 g of tryptone and 5 g of yeast extract per liter). Briefly, cells were grown overnight at 37° C. in LB and diluted in the same medium. […] Plates were incubated at 37° C. for 24 hours and MICs determined as the lowest peptide concentration that inhibited growth. Alternatively, minimal inhibitory concentrations were determined using a standard microtiter dilution method in a Mueller-Hinton (MH) medium. Briefly, cells were grown overnight at 37° C. in MH broth and diluted in the same medium. […] Plates were incubated at 37° C. for 24 hours and MICs determined as the lowest peptide concentration that inhibited growth. However, for MIC determination of Pseudomonas aeruginosa clinical isolates, brain heart infusion (BH1) medium was used instead of MH broth. In addition, the bacteria were diluted to a final inoculum of 1×10^6 colony-forming units/ml.

[3] = tested on: human erythrocytes; test: Hemolytic activity (MHC), Protocol A, 12 hours; settings: for minimal hemolytic concentration (MHC): incubation for 12 hours at 37° C. (Tables 7 and 8)
Procedure: Measurement of Hemolytic Activity—Protocol A: Peptide samples were added to 1% human erythrocytes in phosphate buffered saline (0.08M NaCl; 0.043M Na2PO4; 0.011M KH2PO4) and reactions were incubated at 37° C. for 12 hours in microtiter plates. Peptide samples were diluted 2 fold in order to determine the concentration that produced no hemolysis. […] Hemoglobin release was determined spectrophotometrically at 562 nm. The hemolytic titer was the highest 2-fold dilution of the peptide that still caused release of hemoglobin from erythrocytes. The control for no release of hemoglobin was a sample of 1% erythrocytes without any peptide added. […] Peptide samples were diluted 2 fold in order to determine the concentration that produced no hemolysis. […] Hemoglobin release was determined spectrophotometrically at 570 nm. The hemolytic titer was the highest 2-fold dilution of the peptide that still caused release of hemoglobin from erythrocytes. The control for no release of hemoglobin was a sample of 1% erythrocytes without any peptide added.

[4] = minimal hemolytic concentration on human red blood cells (hRBC), Table 9

In the case of CC[C@H](C)[C@H](NC(=O)[C@H](C)NC(=O)[C@H](CCCCN)NC(=O)[C@H](CC(C)C)NC(=O)[C@H](C)NC(=O)[C@@H](NC(=O)[C@H](Cc1c[nH]cn1)NC(=O)[C@H](CC(C)C)NC(=O)[C@@H](NC(=O)[C@@H](NC(=O)[C@H](CCCCN)NC(=O)[C@@H](CCCCN)NC(=O)[C@H](C)NC(=O)[C@H](CO)NC(=O)[C@H](CCCCN)NC(=O)[C@H](Cc1ccccc1)NC(=O)[C@@H](NC(=O)[C@H](CCCCN)NC(=O)[C@H](CC(C)C)NC(=O)[C@H](Cc1ccccc1)NC(=O)[C@H](CO)NC(=O)[C@H](CCCCN)NC(=O)[C@H](Cc1c[nH]c2ccccc12)NC(=O)[C@H](CCCCN)NC(C)=O)[C@@H](C)O)[C@@H](C)O)C(C)C)[C@@H](C)O)C(=O)N[C@@H](CO)C(=O)N[C@@H](CO)C(N)=O [NKD], the “% helix 50% TFE” value [1] is reported as 82%, the “[θ]222 Benign” value [1] is reported as −2,000 deg · cm^2 · dmol^−1 and the “[θ]222 50% TFE” value [1] is reported as −23,600 deg · cm^2 · dmol^−1. For the same compound, the “% helix Benign” value [1] was 7%, the “MIC (μg/ml) Gram-positive” value ([2]; geometric mean MIC, Table 9) was 18.7 µg/mL (≈ 6.25 µM) and the “MHC” value [3, 4] was >250.0 µg/mL.

For CC[C@H](C)[C@H](NC(=O)[C@H](C)NC(=O)[C@H](CCCCN)NC(=O)[C@H](CC(C)C)NC(=O)[C@H](C)NC(=O)[C@@H](NC(=O)[C@H](Cc1c[nH]cn1)NC(=O)[C@H](CC(C)C)NC(=O)[C@@H](NC(=O)[C@@H](NC(=O)[C@H](CCCCN)NC(=O)[C@@H](NC(=O)[C@H](C)NC(=O)[C@@H](CC(C)C)NC(=O)[C@H](CCCCN)NC(=O)[C@H](Cc1ccccc1)NC(=O)[C@@H](NC(=O)[C@H](CCCCN)NC(=O)[C@H](CC(C)C)NC(=O)[C@H](Cc1ccccc1)NC(=O)[C@H](CO)NC(=O)[C@H](CCCCN)NC(=O)[C@H](Cc1c[nH]c2ccccc12)NC(=O)[C@H](CCCCN)NC(C)=O)[C@@H](C)O)C(C)C)[C@@H](C)O)C(C)C)[C@@H](C)O)C(=O)N[C@@H](CO)C(=O)N[C@@H](CO)C(N)=O [PLD] (Ac-KWKSFLKTFK[dL]AVKTVLHTALKAISS-NH2), the “% helix 50% TFE” value [1] was 90%, the “[θ]222 Benign” value [1] was −2,950 deg · cm^2 · dmol^−1 and the “[θ]222 50% TFE” value [1] was −26,100 deg · cm^2 · dmol^−1. For the same compound, the “% helix Benign” value [1] was 10%, the “MIC (μg/ml) Gram-positive” value [2] was 4.7 µg/mL (≈ 1.57 µM) and the “MHC” value [3] was 31.2 µg/mL.

With CC[C@H](C)[C@H](NC(=O)[C@H](C)NC(=O)[C@H](CCCCN)NC(=O)[C@H](CC(C)C)NC(=O)[C@H](C)NC(=O)[C@@H](NC(=O)[C@H](Cc1c[nH]cn1)NC(=O)[C@H](CC(C)C)NC(=O)[C@@H](NC(=O)[C@@H](NC(=O)[C@H](CCCCN)NC(=O)[C@@H](CO)NC(=O)[C@H](C)NC(=O)[C@H](CO)NC(=O)[C@H](CCCCN)NC(=O)[C@H](Cc1ccccc1)NC(=O)[C@@H](NC(=O)[C@H](CCCCN)NC(=O)[C@H](CC(C)C)NC(=O)[C@H](Cc1ccccc1)NC(=O)[C@H](CO)NC(=O)[C@H](CCCCN)NC(=O)[C@H](Cc1c[nH]c2ccccc12)NC(=O)[C@H](CCCCN)NC(C)=O)[C@@H](C)O)[C@@H](C)O)C(C)C)[C@@H](C)O)C(=O)N[C@@H](CO)C(=O)N[C@@H](CO)C(N)=O [NSD] (Ac-KWKSFLKTFKSA[dS]KTVLHTALKAISS-NH2) the “% helix 50% TFE” value [1] was 77%, the “[θ]222 Benign” value [1] was −1,700 deg · cm^2 · dmol^−1 and the “[θ]222 50% TFE” value [1] was −22,200 deg · cm^2 · dmol^−1. The “% helix Benign” value [1] was 6%, the “MIC (μg/ml) Gram-positive” value [2] was 16.0 µg/mL (≈ 5.42 µM) and the “MHC” value [3] was >250.0 µg/mL.

In the case of CC[C@H](C)[C@H](NC(=O)[C@H](C)NC(=O)[C@H](CCCCN)NC(=O)[C@H](CC(C)C)NC(=O)[C@H](C)NC(=O)[C@@H](NC(=O)[C@H](Cc1c[nH]cn1)NC(=O)[C@H](CC(C)C)NC(=O)[C@@H](NC(=O)[C@@H](NC(=O)[C@H](CCCCN)NC(=O)[C@H](NC(=O)[C@H](C)NC(=O)[C@H](CO)NC(=O)[C@H](CCCCN)NC(=O)[C@H](Cc1ccccc1)NC(=O)[C@@H](NC(=O)[C@H](CCCCN)NC(=O)[C@H](CC(C)C)NC(=O)[C@H](Cc1ccccc1)NC(=O)[C@H](CO)NC(=O)[C@H](CCCCN)NC(=O)[C@H](Cc1c[nH]c2ccccc12)NC(=O)[C@H](CCCCN)NC(C)=O)[C@@H](C)O)C(C)C)[C@@H](C)O)C(C)C)[C@@H](C)O)C(=O)N[C@@H](CO)C(=O)N[C@@H](CO)C(N)=O [NVD], the “% helix 50% TFE” value [1] is reported as 90%, the “[θ]222 Benign” value [1] is reported as −2,800 deg · cm^2 · dmol^−1 and the “[θ]222 50% TFE” value [1] is reported as −26,000 deg · cm^2 · dmol^−1. For the same compound, the “% helix Benign” value [1] was 10%, the “MIC (μg/ml) Gram-positive” value ([2]; geometric mean MIC, Table 9) was 2.8 µg/mL (≈ 0.945 µM) and the “MHC” value [3, 4] was 62.5 µg/mL.

For Ac-KWKSFLKTFKSAGKTVLHTALKAISS-NH2 [NG], the “% helix 50% TFE” value [1] was 84%, the “[θ]222 50% TFE” value [1] was −24,350 deg · cm^2 · dmol^−1 and the “% helix Benign” value [1] was 8%. The “MIC (μg/ml) Gram-positive” value [2] was 7.4 µg/mL, the “minimal hemolytic concentration (MHC)” value [3] was 125 µg/mL and the “MHC” value [3, 4] was 125.0 µg/mL.

For CC[C@H](C)[C@H](NC(=O)[C@H](C)NC(=O)[C@H](CCCCN)NC(=O)[C@H](CC(C)C)NC(=O)[C@H](C)NC(=O)[C@@H](NC(=O)[C@H](Cc1c[nH]cn1)NC(=O)[C@H](CC(C)C)NC(=O)[C@@H](NC(=O)[C@@H](NC(=O)[C@H](CCCCN)NC(=O)[C@H](C)NC(=O)[C@H](C)NC(=O)[C@H](CO)NC(=O)[C@H](CCCCN)NC(=O)[C@H](Cc1ccccc1)NC(=O)[C@@H](NC(=O)[C@H](CCCCN)NC(=O)[C@H](CC(C)C)NC(=O)[C@H](Cc1ccccc1)NC(=O)[C@H](CO)NC(=O)[C@H](CCCCN)NC(=O)[C@H](Cc1c[nH]c2ccccc12)NC(=O)[C@H](CCCCN)NC(C)=O)[C@@H](C)O)[C@@H](C)O)C(C)C)[C@@H](C)O)C(=O)N[C@@H](CO)C(=O)N[C@@H](CO)C(N)=O [NAL], the “% helix 50% TFE” value [1] was 100%, the “[θ]222 50% TFE” value [1] was −28,950 deg · cm^2 · dmol^−1 and the “% helix Benign” value [1] was 12%. The “MIC (μg/ml) Gram-positive” value [2] was 4.5 µg/mL (≈ 1.53 µM), the “minimal hemolytic concentration (MHC)” value [3] was 31.2 µg/mL and the “MHC” value [3, 4] was 31.2 µg/mL.

For CC[C@H](C)[C@H](NC(=O)[C@H](C)NC(=O)[C@H](CCCCN)NC(=O)[C@H](CC(C)C)NC(=O)[C@H](C)NC(=O)[C@@H](NC(=O)[C@H](Cc1c[nH]cn1)NC(=O)[C@H](CC(C)C)NC(=O)[C@@H](NC(=O)[C@@H](NC(=O)[C@H](CCCCN)NC(=O)[C@@H](NC(=O)[C@H](C)NC(=O)[C@H](NC(=O)[C@H](CCCCN)NC(=O)[C@H](Cc1ccccc1)NC(=O)[C@@H](NC(=O)[C@H](CCCCN)NC(=O)[C@H](CC(C)C)NC(=O)[C@H](Cc1ccccc1)NC(=O)[C@H](CO)NC(=O)[C@H](CCCCN)NC(=O)[C@H](Cc1c[nH]c2ccccc12)NC(=O)[C@H](CCCCN)NC(C)=O)[C@@H](C)O)C(C)C)C(C)C)[C@@H](C)O)C(C)C)[C@@H](C)O)C(=O)N[C@@H](CO)C(=O)N[C@@H](CO)C(N)=O [PVD] (Ac-KWKSFLKTFK[dV]AVKTVLHTALKAISS-NH2), the “% helix 50% TFE” value [1] was 72%, the “[θ]222 Benign” value [1] was −2,400 deg · cm^2 · dmol^−1 and the “[θ]222 50% TFE” value [1] was −20,800 deg · cm^2 · dmol^−1. For the same compound, the “% helix Benign” value [1] was 8%, the “MIC (μg/ml) Gram-positive” value [2] was 6.6 µg/mL (≈ 2.22 µM) and the “fold decrease in hemolytic activity compared to the L-diastereomer” value [3] was 16. For the same compound, the “minimal hemolytic concentration (MHC)” value [3] was 125 µg/mL and the “MHC” value [3, 4] was 125.0 µg/mL.

For Ac-KWKSFLKTFKSALKTVLHTALKAISS-NH2 [NLL], the “% helix 50% TFE” value [1] was 98%, the “[θ]222 Benign” value [1] was −20,600 deg · cm^2 · dmol^−1 and the “[θ]222 50% TFE” value [1] was −28,250 deg · cm^2 · dmol^−1. The “% helix Benign” value [1] was 71% and the “minimal hemolytic concentration (MHC)” value [3] was 7.8 µg/mL.
